In patent US6884772B1, “Depilatories and agents for external use” (Kao Corporation, priority 1999, dated 2005):
Where no end group is shown, it is not given here.

Assays:
[1] = tested on: dorsal parts of guinea pigs; assay: Growth-phase hair follicle inhibitory effects (number of hair shafts grown per unit area); format: in vivo, guinea pig; details: 1 μg each, intracutaneous, 50 μL/site, fifth day after the administration (FIG. 1)
Experimental: Solutions (1 μg, each) of endothelin-1, endothelin-2 and endotherin-3 in aliquots of phosphate buffer solution (PBS), which contained 0.1% of bovine serum albumin (BSA), were intracutaneously administered (at 50 μL/site) to the dorsal parts of guinea pigs, respectively, from which hair had been cut off by a hair clipper. Three days after the administration, hair was again cut off by a hair clipper from the administered sites. Two days after the cutting, the numbers of hair shafts grown per unit area at the administered sites were counted.

[2] = tested on: dorsal part of a guinea pig; assay: Depilation inducing effects of endothelin (intracutaneous administration); format: in vivo; details: 0.3 μg in 0.1% BSA/PBS, 50 μL/site, 10 days after the administration
Experimental: (§1) A solution of endothelin-1 (0.3 μg) in phosphate buffer solution (PBS), which contained 0.1% of bovine serum albumin (BSA), was intracutaneously administered (at 50 μL/site) to the dorsal part of a guinea pig.

[3] = tested on: growth-phase hair follicle; assay: Structural changes of hair follicle structure (hematoxylin-eosin staining of dorsal skin); format: in vivo, guinea pig; details: 0.3 μg intracutaneous
Experimental: as §1, with “1.1%” for “0.1%”, “pig. After that, samples were collected day after day from the administered dorsal skin, and tissue samples were prepared by hematoxylin-eosin staining.” for “pig.”

[4] = tested on: hair follicle organs in growth phase from a human scalp tissue; assay: Growth inhibitory effects on organ-cultured hair follicles; format: cell-based
Experimental: From a human scalp tissue, hair follicle organs in growth phase were surgically isolated under a stereomicroscope. Following a conventional procedure [Philpott M.P., et al., J. Cell Sci., 97, 463-471 (1990), the isolated hair follicles were subjected to organ culture. Described specifically, endothelin-1 was added to William's E medium which contained L-glutamine (2mM), hydrocortisone (10ng/mL), insulin ([…]) sodium selenite (10 ng/mL) and transferrin (10 μg/mL).

Compound: endothelin-3 (CTCFTYKDKECVYYCHLDIIW; ends and bridges not checked; cysteine pairing not given here; UniProt P14138 97-117, looked up) [endotherin-3, peptide composed of 21 amino acid residues, isoform of endothelin]
- Number of hair shafts grown per unit area at the administered sites [1]: significant (p<0.01) decrease in the number of hair shafts

Compound: CC[C@H](C)[C@H](NC(=O)[C@H](CC(=O)O)NC(=O)[C@H](CC(C)C)NC(=O)[C@H](Cc1c[nH]cn1)NC(=O)[C@@H]1CSSC[C@H](N)C(=O)N[C@@H](CO)C(=O)N[C@H]2CSSC[C@H](NC(=O)[C@H](CCC(=O)O)NC(=O)[C@H](CCCCN)NC(=O)[C@H](CC(=O)O)NC(=O)[C@H](CCSC)NC(=O)[C@H](CC(C)C)NC(=O)[C@H](CO)NC(=O)[C@H](CO)NC2=O)C(=O)N[C@@H](C(C)C)C(=O)N[C@@H](Cc2ccc(O)cc2)C(=O)N[C@@H](Cc2ccccc2)C(=O)N1)C(=O)N[C@H](C(=O)N[C@@H](Cc1c[nH]c2ccccc12)C(=O)O)[C@@H](C)CC [Endothelin-1, endothelin-1]
- Number of hair shafts grown per unit area at the administered sites [1]: significant (p<0.01) decrease in the number of hair shafts
- Hair shaft falling-off and formation of depilation spot at the administered site [2]: hair shaft falling-off and formation of a marked depilation spot were observed
- Hair follicle histology ([3]; 1st day after the administration (FIG. 2)): regressed image of a growth-phase hair follicle was observed
- Hair follicle histology ([3]; 3rd day after the administration (FIG. 2)): image of a follicular tissue in transition phase was presented
- Percent regression of growth-phase hair follicles ([4]; 10 ng/mL, Day 1 of incubation): 0.0%
- Percent regression of growth-phase hair follicles ([4]; 10 ng/mL, Day 2 of incubation): 0.0%
- Percent regression of growth-phase hair follicles ([4]; 100 ng/mL, Day 1 of incubation): 0.0%
- Percent regression of growth-phase hair follicles ([4]; 100 ng/mL, Day 2 of incubation): 0.0%
- Grown hair follicle lengths (hair growth inhibition) ([4]; day 4 of incubation and the subsequent days, compared with control group without endothelin-1 (FIG. 3)): significant hair growth inhibitory effects were observed
- Structural change of incubated growth-phase hair follicles ([4]; during the incubation period (FIG. 4)): structural change of the endothelin-treated, growth-phase hair follicles into those similar to resting-phase hair follicles was observed

Compound: endothelin-2 (CSCSSWLDKECVYFCHLDIIW; ends and bridges not checked; cysteine pairing not given here; UniProt P20800 49-69, looked up) [peptide composed of 21 amino acid residues, isoform of endothelin]
- Number of hair shafts grown per unit area at the administered sites [1]: significant (p<0.01) decrease in the number of hair shafts
